Experimental data reported in patent publication US20190048016A1, “SUBSTITUTED BRIDGED UREA ANALOGS AS SIRTUIN MODULATORS” (GlaxoSmithKline Intellectual Property(No.2)Limited, priority 2014, published 2019).

Biological target: T1, SIRT1 (Homo sapiens, UniProt Q96EB6)
T1 sequence (Q96EB6 1-747): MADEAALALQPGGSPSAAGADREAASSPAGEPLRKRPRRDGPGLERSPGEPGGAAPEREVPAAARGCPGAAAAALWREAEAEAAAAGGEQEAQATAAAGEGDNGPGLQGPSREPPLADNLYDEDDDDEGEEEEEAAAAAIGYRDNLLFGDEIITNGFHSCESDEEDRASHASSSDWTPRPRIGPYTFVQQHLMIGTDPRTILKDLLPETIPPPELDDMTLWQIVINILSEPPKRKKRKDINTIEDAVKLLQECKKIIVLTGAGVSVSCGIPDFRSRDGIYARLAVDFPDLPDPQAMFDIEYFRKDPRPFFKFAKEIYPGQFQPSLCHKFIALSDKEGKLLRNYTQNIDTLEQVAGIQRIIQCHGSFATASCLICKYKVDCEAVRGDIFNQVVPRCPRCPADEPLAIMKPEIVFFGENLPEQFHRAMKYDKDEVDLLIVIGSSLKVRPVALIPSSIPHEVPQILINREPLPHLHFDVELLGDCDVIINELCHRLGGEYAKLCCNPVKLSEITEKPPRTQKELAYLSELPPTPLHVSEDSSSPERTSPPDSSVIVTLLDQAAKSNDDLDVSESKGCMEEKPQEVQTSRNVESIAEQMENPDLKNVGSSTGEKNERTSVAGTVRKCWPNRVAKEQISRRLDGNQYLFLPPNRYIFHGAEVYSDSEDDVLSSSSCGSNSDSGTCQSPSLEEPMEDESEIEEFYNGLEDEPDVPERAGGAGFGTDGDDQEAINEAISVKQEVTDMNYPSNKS
Assay: Trp mass spectrometry assay of SIRT1 activation (deacetylation of Ac-R-H-K-K(Ac)-W-NH2 peptide, OAADPR formation)
Type: biochemical
Details: Trp peptide 0.5 μM, 120 μM βNAD+, 10 nM SIRT1, 25 min, 25° C.; for Emax: 25 min, read-out: TRP MAX RESP (percent maximum fold activation relative to control = 100%)
Description: Mass spectrometry based assays were used to identify modulators of SIRT1 activity. The TAMRA based assay utilized a peptide having 20 amino acid residues as follows: Ac-EE-K(biotin)-[…](Ac)NleSTEG-K(5TMR)-EE-NH2 (SEQ ID NO: 1), wherein K(Ac) is an acetylated lysine residue and Nle is a norleucine. The peptide was labeled with the fluorophore 5TMR (excitation 540 nm/emission 580 nm) at the C-terminus. The sequence of the peptide substrate was based on p53 with several modifications. In addition, the methionine residue naturally present in the sequence was replaced with the norleucine because the methionine may be susceptible to oxidation during synthesis and purification. The Trp based assay utilized a peptide having an amino acid residues as follows: Ac-R-H-K-K(Ac)-W-NH2 (SEQ ID NO: 2).
The Trp mass spectrometry assay was conducted as follows. 0.5 μM peptide substrate and 120 μM βNAD^+ were incubated with 10 nM SIRT1 for 25 minutes at 25° C. in a reaction buffer (50 mM HEPES pH 7.5, […], 1 mM DTT, 0.05% BSA). The SIRT1 protein was obtained by cloning the SirT1 gene into a T7-promoter containing vector, which was then expressed in BL21(DE3) bacterial cells and purified as described in further detail below. Test compound was added at varying concentrations to this reaction mixture and the resulting reactions were monitored. After the 25 minute incubation with SIRT1, 10 μL of 10% formic acid was added to stop the reaction. The resulting reactions were sealed and frozen for later mass spec analysis. The relative SIRT1 activity was then determined by measuring the amount of O-acetyl-ADP-ribose (OAADPR) formed (or, alternatively, the amount of deacetylated Trp peptide generated) by the NAD-dependent sirtuin deacetylation reaction in the presence of varying concentrations of the test compound versus control reactions lacking the test compound. The degree to which the test agent activated deacetylation by SIRT1 was expressed as EC1.5 (i.e., the concentration of compound required to increase SIRT1 activity by 50% over the control lacking test compound), and Percent Maximum Activation (i.e., the maximum activity relative to control (100%) obtained for the test compound).
A control for inhibition of sirtuin activity was conducted by adding 1 μL of 500 mM nicotinamide as a negative control at the start of the reaction (e.g., permits determination of maximum sirtuin inhibition). A control for activation of sirtuin activity was conducted using 10 nM of sirtuin protein, with 1 μL of DMSO in place of compound, to determine the amount of deacetylation of the substrate at a given time point within the linear range of the assay. This time point was the same as that used for test compounds and, within the linear range, the endpoint represents a change in velocity.
For the above assay, SIRT1 protein was expressed and purified as follows. The SirT1 gene was cloned into a T7-promoter containing vector and transformed into BL21(DE3). The protein was expressed by induction with 1 mM IPTG as an N-terminal His-tag fusion protein at 18° C. overnight and harvested at 30,000×g. Cells were lysed with lysozyme in lysis buffer (50 mM Tris-HCl, 2 mM Tris[2-carboxyethyl] phosphine (TCEP), 10 μM ZnCl2, 200 mM NaCl) and further treated with sonication for 10 min for complete lysis. The protein was purified over a Ni-NTA column (Amersham) and fractions containing pure protein were pooled, concentrated and run over a sizing column (Sephadex S200 26/60 global). The peak containing soluble protein was collected and run on an Ion-exchange column (MonoQ). Gradient elution (200 mM-500 mM NaCl) yielded pure protein. This protein was concentrated and dialyzed against dialysis buffer (20 mM Tris-HCl, 2 mM TCEP) overnight. The protein was aliquoted and frozen at −80° C. until further use.
Sirtuin-modulating compounds of Formula (I) that activated SIRT1 were identified using the assay described above and are shown below in Table 1. […]

Row | SMILES | Emax [%] | TRP Activity (EC1.5, concentration of compound required to increase SIRT1 activity by 50% over control)
1 | COc1cncc(NC(=O)N2c3nc(-c4ccnc(C)c4)ccc3N3CCC[C@H]2C3)n1 [Example 20, (9S)-N-(6-methoxypyrazin-2-yl)-2-(2-methylpyridin-4-yl)-8,9-dihydro-6H-5,9-methanopyrido[2,3-b][1,4]diazocine-10(7H)-carboxamide] | ≥ 150 | A (EC1.5<1 μM)
2 | Cc1cc(-c2ccc3c(n2)N(C(=O)Nc2cncc(C)n2)[C@H]2CCCN3C2)ccn1 [Example 21] | ≥ 150 | B (EC1.5 1-25 μM)
3 | Cc1cc(-c2ccc3c(n2)N(C(=O)Nc2cnn(C)c2)[C@H]2CCCN3C2)ccn1 [Example 26, (9S)-N-(1-methyl-1H-pyrazol-4-yl)-2-(2-methylpyridin-4-yl)-8,9-dihydro-6H-5,9-methanopyrido[2,3-b][1,4]diazocine-10(7H)-carboxamide] | ≥ 150 | B (EC1.5 1-25 μM)
4 | Cc1cc(-c2ccc3c(n2)N(C(=O)Nc2cccnc2)[C@H]2CCCN3C2)ccn1 [Example 32, (9S)-2-(2-methylpyridin-4-yl)-N-(pyridin-3-yl)-8,9-dihydro-6H-5,9-methanopyrido[2,3-b][1,4]diazocine-10(7H)-carboxamide] | ≥ 150 | A (EC1.5<1 μM)
5 | O=C(NC1CC1)c1nc2c(cc1Cl)N1CCC[C@@H](C1)N2C(=O)Nc1ccccn1 [Example 33, (9S)-3-chloro-N2-cyclopropyl-N10-(pyridin-2-yl)-8,9-dihydro-6H-5,9-methanopyrido[2,3-b][1,4]diazocine-2,10(7H)-dicarboxamide] | ≥ 150 | B (EC1.5 1-25 μM)
6 | C[C@@H](NC(=O)c1ccc2c(n1)N(C(=O)Nc1cc(OC[C@H](O)CO)ccn1)[C@H]1CCCN2C1)C(F)(F)F [Example 34, (9S)-N10-(4-((R)-2,3-dihydroxypropoxy)pyridin-2-yl)-N2-((R)-1,1,1-trifluoropropan-2-yl)-8,9-dihydro-6H-5,9-methanopyrido[2,3-b][1,4]diazocine-2,10(7H)-dicarboxamide] | ≥ 150 | A (EC1.5<1 μM)
7 | CC(F)(F)CNC(=O)c1ccc2c(n1)N(C(=O)Nc1cc(OC[C@H](O)CO)ccn1)[C@H]1CCCN2C1 [Example 35, (9S)-N2-(2,2-difluoropropyl)-N10-(4-((R)-2,3-dihydroxypropoxy)pyridin-2-yl)-8,9-dihydro-6H-5,9-methanopyrido[2,3-b][1,4]diazocine-2,10(7H)-dicarboxamide] | ≥ 150 | A (EC1.5<1 μM)
8 | O=C(NC1CC1)c1ccc2c(n1)N(C(=O)Nc1ccccn1)[C@H]1CCCN2C1 [Example 36, (9S)-N2-cyclopropyl-N10-(pyridin-2-yl)-8,9-dihydro-6H-5,9-methanopyrido[2,3-b][1,4]diazocine-2,10(7H)-dicarboxamide] | ≥ 150 | A (EC1.5<1 μM)
9 | O=C(NCC(F)(F)F)c1ccc2c(n1)N(C(=O)Nc1ccccn1)[C@H]1CCCN2C1 [Example 37, (9S)-N10-(pyridin-2-yl)-N2-(2,2,2-trifluoroethyl)-8,9-dihydro-6H-5,9-methanopyrido[2,3-b][1,4]diazocine-2,10(7H)-dicarboxamide] | ≥ 150 | A (EC1.5<1 μM)
10 | O=C(NCC(F)(F)F)c1nc2c(cc1Cl)N1CCC[C@@H](C1)N2C(=O)Nc1ccccn1 [Example 38, (9S)-3-chloro-N10-(pyridin-2-yl)-N2-(2,2,2-trifluoroethyl)-8,9-dihydro-6H-5,9-methanopyrido[2,3-b][1,4]diazocine-2,10(7H)-dicarboxamide] | ≥ 150 | A (EC1.5<1 μM)
